From publication PMC5754397, “Population pharmacokinetics of nintedanib, an inhibitor of tyrosine kinases, in patients with non-small cell lung cancer or idiopathic pulmonary fibrosis” (Cancer Chemotherapy and Pharmacology, 2017)

Assays:
[1] = Phase I trial; cited from earlier work
[2] = set-up: method as in ref 34 = [34]; 34. Boehringer Ingelheim (2015) Pharmacokinetics, safety and tolerability of nintedanib single oral dose in male and female patients with different degrees of hepatic impairment (Child-Pugh classifica); conditions: Child–Pugh classification, subjects with liver cirrhosis; cited from earlier work
[3] = test system: idiopathic pulmonary fibrosis (IPF); set-up: method as in PMID 21992121, PMID 24836310; conditions: patients with IPF, 52-week treatment period; cited from earlier work
clinical = conditions: human, in vivo
Experimental: An overview of these studies is provided in Online Resource Table S1. […] Treatment continued until disease progression or intolerable toxicity. […] Treatment cycles were continued until disease progression or intolerable toxicity. […] In all four trials, dose reductions and interruptions were allowed to manage adverse events. All studies were conducted in accordance with the Declaration of Helsinki and with approval of the local ethics committees. Written informed consent was obtained from all patients before study entry. Blood sampling schema for measurement of nintedanib plasma concentrations varied. For all trials, at least two pre-dose and two post-dose blood samples were scheduled during treatment (see Online Resource Table S1). In addition, more extensive sampling was performed in the two Phase II trials. Nintedanib and BIBF 1202 plasma concentrations were analyzed by validated liquid chromatography-mass spectrometry (HPLC-MS/MS) methods. […] The population pharmacokinetic analysis was performed using non-linear mixed-effects modeling techniques (NONMEM, version VI 2.0, ICON Development Solutions, Ellicott City, Maryland, USA). The first-order conditional estimation algorithm with interaction was used. Data processing, diagnostic plots, and calculation of descriptive statistics were performed using R version 2.12.1 (http://www.rproject.org) and SAS version 9.2 (SAS Institute Inc, Cary, NC, USA). Bootstrap analysis was performed using Perl-speaks-NONMEM, version 3.5.3 [24, 25]. A sequential approach was used for population pharmacokinetic model development. […] Inter-individual variability (IIV, η) and inter-occasion variability (IOV, κ) were modeled using exponential random effect models. For testing IOV, each visit was defined as one occasion. […] Model selection was guided by change in objective function values (OFV), identifiability of parameters and precision of parameter estimates, correlation between the estimates of fixed-effect parameters, numerical stability, ability to obtain a successful COVARIANCE step, and visual inspection of basic goodness-of-fit plots. The effects of intrinsic patient factors (e.g., gender, age, body weight, ethnicity, laboratory values, and NSCLC histology) and extrinsic factors (e.g., smoking history and alcohol consumption) on pharmacokinetic parameters of nintedanib were evaluated by applying a stepwise forward inclusion/backward elimination approach. Combinations of covariates and model parameters to be tested were pre-specified based on prior knowledge, physiological plausibility, or general clinical interest (see Online Resource Table S2). Potential effects of patient population (NSCLC versus IPF) or treatment regimen (monotherapy versus combination therapy with docetaxel or pemetrexed) could not be distinguished from trials effects, and were, therefore, not re-evaluated during covariate analysis. To assess the effect of hepatic impairment on apparent total plasma clearance (CL/F) and relative bioavailability (F1), alanine transaminase (ALT), aspartate transaminase (AST), and total bilirubin (BIL) were tested individually and in combination using an adapted liver dysfunction group (LDF) composite developed for organ dysfunction studies by the Organ Dysfunction Working Group of the National Cancer Institute. In this classification, hepatic dysfunction is classified as mild (subdivided into two subgroups), moderate, or severe according to ALT, AST, and BIL levels relative to the upper limit of normal (ULN) (see Table 1). This categorization was preferred over the classical Child-Pugh classification (based on assessments of BIL, albumin, prothrombin time, encephalopathy, and ascites) commonly used to assess surgical risk in cirrhotic patients, as it has potential disadvantages for use in oncology patients. Creatinine clearance (CLCR) estimated by the Cockcroft-Gault equation [31] was used as surrogate for renal function. […]

P-glycoprotein (P-gp) = test system: P-glycoprotein (P-gp); set-up: method as in ref 13, 21, 22 = [13]; 13. Boehringer Ingelheim (2017) OFEV® (nintedanib) capsules, for oral use; Prescribing information, revised: 08/2017. http://docs.boehringer-ingelheim.com/Prescribing%20Information/PIs/Ofev/ofev.pdf . || [21]; 21. Boehringer Ingelheim (2013) Relative bioavailability of nintedanib given alone and in combination with ketoconazole at steady state in healthy male volunteers (an open-label, randomised, two-way c || [22]; 22. Boehringer Ingelheim (2013) Relative bioavailability of a single oral dose of nintedanib given alone and in combination with multiple oral doses of rifampicin in healthy male volunteers (an open-l); conditions: cited from earlier work

SMILES: COC(=O)c1ccc2c(c1)NC(=O)/C2=C(\Nc1ccc(N(C)C(=O)CN2CCN(C)CC2)cc1)c1ccccc1 [nintedanib]
- increase of exposure (AUC0−∞) by food [1]: 20%
- increase of maximum plasma concentrations (Cmax) by food [1]: 20%
- increase in nintedanib exposure, mild hepatic impairment [2]: ~2 fold
- increase in nintedanib exposure, moderate hepatic impairment [2]: ~8 fold
- rate of decline in forced vital capacity [3]: significant reduction
- ALAG (clinical): 0.470 (–) h
- CL/F (θCL) (clinical): 875 (–) L/h
- F1 higher in NSCLC phase II and LUME-Lung 2 trials than in LUME-Lung 1 and IPF phase II trials (clinical): 30%
- V2/F (θV2) (clinical): 617 (–) L
- V2 when applying non-flip-flop kinetics in the final model (clinical): 10,700 L
- Vd/F (clinical): 465 L
- absorption-rate constant, Phase II trials versus Phase III trials (clinical): 2 fold
- change in exposure by any individual covariate at extreme values relative to a typical patient (clinical): ≤ 33%
- covariate effect on F1, θAge (clinical): 0.00942 (–)
- difference in nintedanib pharmacokinetics for Black patients, alcohol consumption or UGT1A1 polymorphism status (clinical): no substantial difference
- dose linearity (clinical): No major deviation from dose linearity
- impact of gender, patient population, NSCLC histology, therapy regimen, ECOG status, liver metastases, mild or moderate renal impairment, LDH on nintedanib pharmacokinetics (clinical): no statistically significant impact
- increase of F1, mild 1 liver dysfunction category (clinical): 8%
- increase of F1, mild 2 liver dysfunction category (clinical): 13%
- ka (θka) (clinical): 0.0391 (–) h^-1
- ka (θka), first-order absorption-rate constant (clinical): 0.0376 (7.77) h^−1
- ka higher in phase II NSCLC and IPF trials than in the two NSCLC Phase III trials (clinical): 120%
- ka when applying non-flip-flop kinetics in the final model (clinical): 1.64 h⁻¹
- ka, absorption rate of a typical patient (clinical): 0.0827 h⁻¹
- lag time (clinical): 25 min
- percentage change in AUCτ,ss: Chinese/Taiwanese/Indian (clinical): ↑33%
- percentage change in AUCτ,ss: Korean (clinical): ↓22%
- percentage change in AUCτ,ss: age 45 years (5th percentile) (clinical): ↓16%
- percentage change in AUCτ,ss: age 76 years (95th percentile) (clinical): ↑13%
- percentage change in AUCτ,ss: body weight 50 kg (5th percentile) (clinical): ↑25%
- percentage change in AUCτ,ss: body weight 100 kg (95th percentile) (clinical): ↓19%
- percentage change in AUCτ,ss: current smoker (clinical): Current smoker: ↓21%
- ratios of AUCτ,ss for each factor other than ethnic origin (clinical): 80–125%
- half-life (clinical; absorption half-life): 8.38 h
- half-life (clinical; elimination half-life (population mean)): 0.36 h
- substrate of P-glycoprotein (P-gp) (P-glycoprotein (P-gp)): substrate
